Test results: paper PMC12216609, “Inhibitors of eIF1A-ribosome interaction unveil uORF-dependent regulation of translation initiation and antitumor and antiviral effects” (The EMBO Journal, 2025)
Values joined by “and” are separate entries in the source; they are usually repeats but may differ in a detail not shown here. Identical values can stand only once. Like-named read-outs stand apart in the source and are kept apart here.

Columns and labels:
eIF1A-RPS10 interaction = molecular target: T1, eIF1A-RPS10 interaction (Homo sapiens, UniProt P46783+P47813); assay: Split-Renilla luciferase eIF1A-RPS10 interaction screen, dose-response; type: biochemical
T1 construct: made in house; host or cells: E. coli BL21 (PRSFduet); unpurified lysate supernatant
Outline: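 Recombinant split-luciferase fusions were produced bacterially, lysed by sonication in TKE buffer and the cleared supernatants tested for Renilla activity. Compounds, held as 10 mM DMSO stocks, were then assayed for interference with the reconstituted signal, with unfused Renilla halves run as controls.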

RPS10 = molecular target: T2, RPS10 (Homo sapiens, UniProt P46783); type: binding
T2 construct: made in house; host or cells: E. coli BL-21

[1] = test system: CUG/GUG vs AUG start codon luciferase reporters in HEK293T cells; assay: Near-cognate AUG starting codon fidelity reporter assay (GUG, CUG vs AUG); type: cell-based; conditions: for CUG vs AUG (%): CUG start codon reporter relative to AUG reporter (AUG = 100); for CUG vs AUG (%) / GUG vs AUG (%): single-experiment calculation; for GUG vs AUG (%): GUG start codon reporter relative to AUG reporter (AUG = 100); for average CUG and GUG / average CUG and GUG relative to DMSO / CUG Average / GUG Average: NUG experiment; for CUG Average: CUG vs AUG reporter; for GUG Average: GUG vs AUG reporter; for NUG (Final data, Fig. 1E): average CUG and GUG relative to DMSO, 20 µM overnight; for GUG vs AUG data (%): individual repeat; for GUG vs AUG (%) Average: summary average of repeats, DMSO control average […]
eIF1A = molecular target: T3, eIF1A (Homo sapiens, UniProt P47813); type: binding; conditions: for fluorescence ratio, eIF1A: background-corrected, relative to DMSO or lowest 1Ai concentration, replicate columns; for WT eIF1A IC50: fluorescence binding
T3 construct: His-bdSUMO (cleaved yes); made in house; host or cells: E. coli BL-21

[2] = summary table, read-out: IC50 concentration (µM), IC50 screen
[3] = read-out: IC50 (line under RPS10 binding data)
[4] = summary table, fluorescence binding assay, read-out: IC50 concentration (µM), RPS10
[5] = compound at 10uM (summary head)
[6] = summary table, fluorescence binding assay
[7] = compound at 20uM (summary head)
[8] = raw data calculation of one experiment, GFP normalized, AUG set to 100, compound marked (20)

T3 sequence (P47813 whole entry): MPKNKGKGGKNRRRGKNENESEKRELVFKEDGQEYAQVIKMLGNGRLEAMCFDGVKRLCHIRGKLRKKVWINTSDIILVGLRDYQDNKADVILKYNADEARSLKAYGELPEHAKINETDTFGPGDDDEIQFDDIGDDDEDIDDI
T1 sequence (P47813 whole entry, one chain of several): as the sequence (P47813 whole entry) above

Row | SMILES | IC50 (eIF1A-RPS10 interaction; [2]) | RPS10 fluorescence ratio to control (RPS10; 1Ai conc. 0.25 uM) | RPS10 fluorescence ratio to control (RPS10; 1Ai conc. 0.5 uM) | RPS10 fluorescence ratio to control (RPS10; 1Ai conc. 1 uM) | RPS10 fluorescence ratio to control (RPS10; 1Ai conc. 2 uM) | RPS10 fluorescence ratio to control (RPS10; 1Ai conc. 4 uM) | RPS10 fluorescence ratio to control (RPS10; 1Ai conc. 8 uM) | RPS10 fluorescence ratio to control (RPS10; 1Ai conc. 16 uM) | RPS10 fluorescence ratio to control (RPS10; 1Ai conc. 32 uM) | IC50 (RPS10; [3]) | IC50 (RPS10; read-out: RPS10 IC50) | IC50 (RPS10; [4]) | average CUG and GUG [1] | average CUG and GUG relative to DMSO [1] | CUG Average [1] | GUG Average [1] | NUG (Final data, Fig. 1E) [1] | fluorescence ratio, eIF1A (eIF1A; 1Ai conc. 0.25 uM) | fluorescence ratio, eIF1A (eIF1A; 1Ai conc. 0.5 uM) | fluorescence ratio, eIF1A (eIF1A; 1Ai conc. 1 uM) | further results
1 | O=c1cc(CN2CCOCC2)occ1OCCCCCSc1ccnc2cc(C(F)(F)F)ccc12 [1Ai-5730] | 24 µM | 1 | 0.9752 | 0.9984 | 0.9868 | 1.11 | 1.2215 | 1.217 | 1.212 | 22.1 µM | 22.1 µM | 22.1 µM | 3.9567 | 0.8773 | 6.145 | 1.768 | 0.877 | 1.04 and 0.9394 | 1.062 and 0.9801 | 1.0621 and 0.9646 | IC50 (eIF1A-RPS10 interaction; Appendix Table S1, read-out: IC50 from the split RL screen): 30 µM; RPS10 fluorescence ratio to control (RPS10; 1Ai conc. 256 uM): 1.367; CUG vs AUG (%) [1, 5]: 9.994%; GUG vs AUG (%) [1, 5]: 3.756%; GUG vs AUG data (%) ([1]; compound at 10uM): 1.66% and 2.32% and 1.73% and 1.38%; GUG vs AUG (%) Average ([1]; compound at 10uM): 1.77%; fluorescence ratio, eIF1A (eIF1A; 1Ai conc. 2 uM): 1.055 and 0.9796; fluorescence ratio, eIF1A (eIF1A; 1Ai conc. 4 uM): 1.077 and 1.03; fluorescence ratio, eIF1A (eIF1A; 1Ai conc. 8 uM): 0.8919 and 0.9326; fluorescence ratio, eIF1A (eIF1A; 1Ai conc. 16 uM): 0.9465 and 0.9064; fluorescence ratio, eIF1A (eIF1A; 1Ai conc. 32 uM): 0.9379 and 0.8516; fluorescence ratio, eIF1A (eIF1A; 1Ai conc. 64 uM): 0.7437 and 0.7726; WT eIF1A IC50 (eIF1A): No binding; IC50 concentration (µM), WT eIF1A (eIF1A; [6]): No binding
2 | Cn1c(=O)c2ccccc2n2c(CNC(c3ccc4c(c3)CCC4)c3cccs3)nnc12 (centres unmarked) [1Ai-7688] | 20 µM | 1.264 | 2.089 | 1.116 | 1.353 | 1.556 | 0.3218 | 0.1412 | 0.0755 | 4.5 µM | 4.5 µM | 4.5 µM | 3.434 | 0.7613 | 5.347 | 1.52 | 0.761 | 1.037 and 0.9455 | 1.0637 and 0.9156 | 1.06 and 0.9161 | CUG vs AUG (%) [1, 7]: 6.15%; GUG vs AUG (%) [1, 7]: 1.391%; GUG vs AUG data (%) ([1]; compound at 20uM): 1.96% and 1.30% and 1.49% and 1.33%; GUG vs AUG (%) Average ([1]; compound at 20uM): 1.52%; calculation: CUG (AUG = 100) [1, 8]: 4.522; calculation: GUG (AUG = 100) [1, 8]: 1.611; fluorescence ratio, eIF1A (eIF1A; 1Ai conc. 2 uM): 1.104 and 0.9936; fluorescence ratio, eIF1A (eIF1A; 1Ai conc. 4 uM): 1.1 and 0.9264; fluorescence ratio, eIF1A (eIF1A; 1Ai conc. 8 uM): 1.007 and 0.92; fluorescence ratio, eIF1A (eIF1A; 1Ai conc. 16 uM): 0.939 and 0.9024; fluorescence ratio, eIF1A (eIF1A; 1Ai conc. 32 uM): 0.8822 and 0.9176; fluorescence ratio, eIF1A (eIF1A; 1Ai conc. 64 uM): 0.9562 and 1.05; fluorescence ratio, eIF1A (eIF1A; 1Ai conc. 256 uM): 1.305 and 1.351; WT eIF1A IC50 (eIF1A): No binding; IC50 concentration (µM), WT eIF1A (eIF1A; [6]): No binding
3 | O=C(COc1ccccc1[N+](=O)[O-])NCc1ccc(-c2ccc(Br)cc2)o1 [1Ai-4700] | 11 µM | 1 | 0.9948 | 1.113 | 1.071 | 0.9943 | 0.904 | 0.762 | 0.6123 | 4.9 µM | 4.9 µM | 4.9 µM | 6.461 | 1.433 | 9.432 | 3.49 | 1.433 | 1.051 and 0.9016 | 1.104 and 0.9037 | 1.126 and 0.8562 | RPS10 fluorescence ratio to control (RPS10; 1Ai conc. 64 uM): 0.5202; RPS10 fluorescence ratio to control (RPS10; 1Ai conc. 256 uM): 0.4416; CUG vs AUG (%) [1, 7]: 5.455%; GUG vs AUG (%) [1, 7]: 0.6501%; GUG vs AUG data (%) ([1]; compound at 20uM): 3.85% and 2.62% and 3.02% and 4.47%; GUG vs AUG (%) Average ([1]; compound at 20uM): 3.49%; fluorescence ratio, eIF1A (eIF1A; 1Ai conc. 2 uM): 1.098 and 0.832; fluorescence ratio, eIF1A (eIF1A; 1Ai conc. 4 uM): 1.037 and 0.7686; fluorescence ratio, eIF1A (eIF1A; 1Ai conc. 8 uM): 0.8525 and 0.6514; fluorescence ratio, eIF1A (eIF1A; 1Ai conc. 16 uM): 0.7753 and 0.6291; fluorescence ratio, eIF1A (eIF1A; 1Ai conc. 32 uM): 0.583 and 0.5184; fluorescence ratio, eIF1A (eIF1A; 1Ai conc. 64 uM): 0.4409 and 0.3702; fluorescence ratio, eIF1A (eIF1A; 1Ai conc. 256 uM): 0.3305 and 0.2635; IC50 (eIF1A; eIF1A, from the titration data, read-out: IC50 (eIF1A titration block)): 20.9 µM; IC50 (eIF1A; summary table, fluorescence binding assay, read-out: IC50 concentration (µM), WT eIF1A): 20.9 µM
